These are literature values, as cited in patent publication US20260337593A1, “METHOD AND MEANS FOR ENGINEERING NON-RIBOSOMAL PEPTIDES” (JOHANN WOLFGANG GOETHE-UNIVERSITÄT FRANKFURT AM MAIN, priority 2022, published 2026).

For this data set, the target named is Mycobacterium tuberculosis proteasome (Mycobacterium tuberculosis, UniProt P9WHT9). Conditions: role: inhibitor; literature reference 60.
Chain of Mycobacterium tuberculosis proteasome (P9WHT9 whole entry, looked up): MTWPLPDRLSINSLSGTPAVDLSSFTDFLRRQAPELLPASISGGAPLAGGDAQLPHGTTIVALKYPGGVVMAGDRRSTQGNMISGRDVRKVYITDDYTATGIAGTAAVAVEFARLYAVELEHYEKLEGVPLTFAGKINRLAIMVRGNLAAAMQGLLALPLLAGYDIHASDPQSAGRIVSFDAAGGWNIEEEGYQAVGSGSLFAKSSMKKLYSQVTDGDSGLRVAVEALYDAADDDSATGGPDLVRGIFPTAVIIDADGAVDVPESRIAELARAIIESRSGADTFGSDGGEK

As for `CCCCCCCCC[C@@H](O)CC(=O)N[C@@H](CC(N)=O)C(=O)N[C@@H](CCC(N)=O)C(=O)N[C@H](C=O)CC(C)C` [fellutamide B], the “binding of the active site's threonine” value is given as “reversible binding”.
